Results from ChEMBL document CHEMBL6103611, “Structure and Dynamics of Macrophage Infectivity Potentiator Proteins from Pathogenic Bacteria and Protozoans Bound to Fluorinated Pipecolic Acid Inhibitors” (J Med Chem, 2025).
Calls of active or inactive are those of the source. The calls are words filed in the database; no cut-off is given here.

Tests used:
[1] = molecular target: Outer membrane protein MIP (Legionella pneumophila) (UniProt Q70YI1)
[2] = molecular target: Outer membrane protein MIP (Legionella pneumophila) (UniProt Q70YI1); remark: listed apart in the source
[3] = molecular target: T1, Macrophage infectivity potentiator (Trypanosoma cruzi) (UniProt Q09734)
T1 sequence (whole entry): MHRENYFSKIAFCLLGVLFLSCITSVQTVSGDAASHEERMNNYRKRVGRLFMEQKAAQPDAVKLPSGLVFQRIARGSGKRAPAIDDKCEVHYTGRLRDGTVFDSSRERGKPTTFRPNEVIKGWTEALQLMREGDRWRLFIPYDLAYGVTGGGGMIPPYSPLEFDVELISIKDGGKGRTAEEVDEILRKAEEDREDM

[4] = molecular target: Outer membrane protein MIP (Legionella pneumophila) (UniProt Q70YI1); remark: listed apart in the source
[5] = molecular target: Outer membrane protein MIP (Legionella pneumophila) (UniProt Q70YI1); remark: listed apart in the source
[6] = molecular target: Outer membrane protein MIP (Legionella pneumophila) (UniProt Q70YI1); remark: listed apart in the source
[7] = molecular target: T2, Peptidyl-prolyl cis-trans isomerase (Burkholderia pseudomallei (strain K96243)) (UniProt Q63J95)
T2 sequence (whole entry): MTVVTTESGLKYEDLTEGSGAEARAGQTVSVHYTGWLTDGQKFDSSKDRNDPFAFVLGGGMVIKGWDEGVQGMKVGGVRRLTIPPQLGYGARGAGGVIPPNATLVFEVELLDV

[8] = molecular target: T2, Peptidyl-prolyl cis-trans isomerase (Burkholderia pseudomallei (strain K96243)); remark: listed apart in the source
[9] = molecular target: T2, Peptidyl-prolyl cis-trans isomerase (Burkholderia pseudomallei (strain K96243)); remark: listed apart in the source
[10] = molecular target: Outer membrane protein MIP (Legionella pneumophila) (UniProt Q70YI1); remark: listed apart in the source
[11] = molecular target: Outer membrane protein MIP (Legionella pneumophila) (UniProt Q70YI1); remark: listed apart in the source
[12] = molecular target: T1, Macrophage infectivity potentiator (Trypanosoma cruzi); remark: listed apart in the source
[13] = molecular target: Outer membrane protein MIP (Legionella pneumophila) (UniProt Q70YI1); remark: listed apart in the source
[14] = molecular target: T1, Macrophage infectivity potentiator (Trypanosoma cruzi); remark: listed apart in the source

SMILES	Time [1] [nanoseconds]	Activity [2]	Time [3] [nanoseconds]	Activity [4]	Activity [5]	Activity [6]	Activity [7]	Time [8] [nanoseconds]	Activity [9]	Time [10] [nanoseconds]	Activity [11]	Activity [12]	Activity [13]	Activity [14]
CC(C)C[C@H](NC(=O)[C@@H]1CCCCN1S(=O)(=O)Cc1ccc(F)cc1)C(=O)NCc1cccnc1	27.9	Active	13.8	Active	Active	Active	Active	7.6	Active	8.8	Active	Active	Active	–
O=C(NCc1cccnc1)[C@H](Cc1ccc(F)cc1)NC(=O)[C@@H]1CCCCN1S(=O)(=O)Cc1ccc(F)cc1	25.4	Active	14.5	Active	Active	Active	Active	7.8	–	9.7	Active	Active	Active	Active
